In patent publication US4220644A, “7-Acylamino-3-(substituted tetrazolyl thiomethyl) cephalosporins” (SmithKline Corporation, priority 1976, dated 1980):
Values after ≈ are worked out from the molar mass of the structure shown. Like-named read-outs stand apart in the source and are kept apart here.

Legend:
Serra. Marc. ATCC 13880 = assay: MIC in vitro (Table 1), Serra. Marc. ATCC 13880; assay type: cell-based; conditions: in vitro, Serra. Marc. ATCC 13880
Text: (§1) Compound names corresponding to numbers are given in the experimental section. For comparative purposes, data for cephamandole, which is 7-mandelamido-3-(1-methyltetrazol-5-ylthiomethyl)-3-cephem-4-carboxylic acid, is also given in Tables 1 and 2.

Strep. Faecalis HH 34358 = assay: MIC in vitro (Table 1), Strep. Faecalis HH 34358; assay type: cell-based; conditions: in vitro, Strep. Faecalis HH 34358
Text: as §1

Shigella HH 117 = assay: MIC in vitro (Table 1), Shigella HH 117; assay type: cell-based
Text: as §1, with “The compounds of Formula I have antibacterial activity against both Gram-positive and Gram-negative organisms. […] Compound” for “Compound”

Proteus morgani 179 = assay: MIC in vitro (Table 1), Proteus morgani 179; assay type: cell-based
Text: as §1

Kleb. pneumo. SK 4200 = assay: MIC in vitro (Table 1), Kleb. pneumo. SK 4200; assay type: cell-based
Text: as §1

Kleb. pneumo. SK 1200 = assay: MIC in vitro (Table 1), Kleb. pneumo. SK 1200; assay type: cell-based
Text: as §1

Salmonella ATCC 12176 = assay: MIC in vitro (Table 1), Salmonella ATCC 12176; assay type: cell-based
Text: as §1, with “The compounds of Formula I have antibacterial activity against both Gram-positive and Gram-negative organisms. […] Compound” for “Compound”

E. coli SK 12140 = assay: MIC in vitro (Table 1), E. coli SK 12140; assay type: cell-based
Text: as §1

E. coli HH 33779 = assay: MIC in vitro (Table 1), E. coli HH 33779; assay type: cell-based
Text: as §1

S. aureus HH 127 = assay: MIC in vitro (Table 1), S. aureus HH 127; assay type: cell-based; conditions: S. aureus HH 127
Text: as §1

[1] = test system: Entero. aerog. ATCC 13048; assay: MIC in vitro (Table 1), Entero. aerog. ATCC 13048; assay type: cell-based
Text: as §1

S. villaluz = assay: MIC in vitro (Table 1), S. villaluz; assay type: cell-based
Text: as §1, with “The compounds of Formula I have antibacterial activity against both Gram-positive and Gram-negative organisms. […] Compound” for “Compound”

S. aureus SK 23390 = assay: MIC in vitro (Table 1), S. aureus SK 23390; assay type: cell-based
Text: as §1

Entero. cloacae HH 31254 = assay: MIC in vitro (Table 1), Entero. cloacae HH 31254; assay type: cell-based
Text: as §1

E. coli 12140 = assay: In vivo mouse protection (Table 2), E. coli 12140
Text: as §1

Kleb. pneumo. 4200 = assay: In vivo mouse protection (Table 2), Kleb. pneumo. 4200
Text: as §1

Pseudo. sp. HH 63 = assay: MIC in vitro (Table 1), Pseudo. sp. HH 63; assay type: cell-based; conditions: in vitro, Pseudo. sp. HH 63; read-out: MIC
Text: as §1, with “The compounds of Formula I have antibacterial activity against both Gram-positive and Gram-negative organisms. […] Compound” for “Compound”

[2] = Escherichia coli, 12140, po, E. coli 12140, p.o.
[3] = Escherichia coli, 12140, sc, E. coli 12140, s.c.
[4] = Enterococcus faecalis, read-out: MIC
[5] = Shigella, HH117, in vitro, read-out: MIC
[6] = Salmonella, ATCC12176, in vitro, read-out: MIC
[7] = Staphylococcus aureus, HH127, in vitro, read-out: MIC
[8] = in vitro, Kleb. pneumo. SK 4200, read-out: MIC
[9] = Escherichia coli, SK12140, in vitro, read-out: MIC
[10] = Escherichia coli, HH33779, in vitro, E. coli HH 33779, read-out: MIC
[11] = in vitro, Entero. aerog. ATCC 13048, read-out: MIC
[12] = Enterobacter cloacae, HH31254, in vitro, Entero. cloacae HH 31254, read-out: MIC

Row | Compound | MIC (Shigella HH 117; in vitro) [µg/mL] | MIC (Proteus morgani 179) [µg/mL] | MIC (Kleb. pneumo. SK 1200) [µg/mL] | MIC (Salmonella ATCC 12176; in vitro) [µg/mL] | MIC (S. aureus SK 23390; in vitro, S. aureus SK 23390) [µg/mL] | ED50 (E. coli 12140; [2]) [mg/kg] | ED50 (E. coli 12140; [3]) [mg/kg] | MIC (Serra. Marc. ATCC 13880; read-out: MIC) [µg/mL] | ED50 (Kleb. pneumo. 4200; po, Kleb. pneumo. 4200, p.o.) [mg/kg] | ED50 (Kleb. pneumo. 4200; sc, Kleb. pneumo. 4200, s.c.) [mg/kg] | MIC (Strep. Faecalis HH 34358; [4]) [µg/mL] | MIC (Shigella HH 117; [5]) [µg/mL] | MIC (Pseudo. sp. HH 63) [µg/mL] | MIC (Kleb. pneumo. SK 4200) [µg/mL] | MIC (Salmonella ATCC 12176; [6]) [µg/mL] | MIC (S. aureus HH 127; [7]) [µg/mL] | MIC (S. aureus SK 23390; Staphylococcus aureus, SK23390) [µg/mL] | MIC (Entero. cloacae HH 31254; Enterobacter cloacae, HH31254) [µg/mL] | MIC (E. coli SK 12140; [9]) [µg/mL] | MIC (E. coli HH 33779; [10]) [µg/mL] | also measured
1 | 7-(α-Carboxythienylacetamido)-3-(1-carboxymethyltetrazol-5-ylthiomethyl)-3-cephem-4-carboxylic acid [XIX] | 6 | 6 | 6 | 25 | 50 | – | – | – | – | – | – | – | – | – | – | – | – | – | – | – | MIC (Serra. Marc. ATCC 13880): 50 µg/mL; MIC (Strep. Faecalis HH 34358): 200 µg/mL; MIC (Kleb. pneumo. SK 4200; in vitro, Kleb. pneumo. SK 4200): 50 µg/mL; MIC (E. coli SK 12140; in vitro): 25 µg/mL; MIC (E. coli HH 33779; in vitro, E. coli HH 33779): 50 µg/mL; MIC (S. aureus HH 127; in vitro): 50 µg/mL; MIC ([1]; in vitro, Entero. aerog. ATCC 13048): 50 µg/mL; MIC (S. villaluz): 100 µg/mL; MIC (Entero. cloacae HH 31254; in vitro, Entero. cloacae HH 31254): 50 µg/mL
2 | CNC(=O)Cn1nnnc1SCC1=C(C(=O)O)N2C(=O)C(NC(=O)[C@H](O)c3ccccc3)[C@H]2SC1 (stereo partly drawn) [III, 7-D-Mandelamido-3-(1-N-methylcarbamoylmethyltetrazol-5-ylthiomethyl)-3-cephem-4-carboxylic acid] | – | 3.1 (≈ 5.97 µM) | 3.1 (≈ 5.97 µM) | – | – | 34 | 1.56 | 25 (≈ 48.1 µM) | > 50 | 2.8 | 25 (≈ 48.1 µM) | 3.1 (≈ 5.97 µM) | > 200 | 3.1 (≈ 5.97 µM) | 0.8 (≈ 1.54 µM) | 1.6 (≈ 3.08 µM) | 3.1 (≈ 5.97 µM) | 3.1 (≈ 5.97 µM) | – | – | MIC (E. coli SK 12140; Escherichia coli, SK12140, in vitro): 3.1 µg/mL (≈ 5.97 µM); MIC (E. coli HH 33779; Escherichia coli, HH33779): 3.1 µg/mL (≈ 5.97 µM); MIC [1]: 3.1 µg/mL (≈ 5.97 µM)
3 | CN(C)C(=O)Cn1nnnc1SCC1=C(C(=O)O)N2C(=O)C(NC(=O)[C@H](O)c3ccccc3)C2SC1 (stereo partly drawn) [IV, 7-D-Mandelamido-3-(1-N,N-dimethylcarbamoylmethyltetrazol-5-ylthiomethyl)-3-cephem-4-carboxylic acid] | – | – | – | – | – | 168 | 2.5 | 100 (≈ 187 µM) | 168 | 7.5 | 25 (≈ 46.9 µM) | 0.8 (≈ 1.5 µM) | > 200 | – | 3.1 (≈ 5.81 µM) | 1.6 (≈ 3 µM) | 0.8 (≈ 1.5 µM) | – | 3.1 (≈ 5.81 µM) | 6.3 (≈ 11.8 µM) | MIC (Kleb. pneumo. SK 4200; [8]): 3.1 µg/mL (≈ 5.81 µM); MIC (Kleb. pneumo. SK 1200; read-out: MIC): 1.6 µg/mL (≈ 3 µM); MIC [1, 11]: 6.3 µg/mL (≈ 11.8 µM); MIC (S. villaluz; read-out: MIC): 50 µg/mL (≈ 93.7 µM); MIC (Entero. cloacae HH 31254; [12]): 1.6 µg/mL (≈ 3 µM)
4 | CN(C)C(=O)Cn1nnnc1SCC1=C(C(=O)O)N2C(=O)C(NC(=O)[C@H](N)c3ccc(O)cc3)C2SC1 (stereo partly drawn) [IX, 7-(D-α-Amino-4-hydroxyphenylacetamido)-3-(1-N,N-dimethylcarbamoylmethyltetrazol-5-ylthiomethyl)-3-cephem-4-carboxylic acid] | – | – | 6.3 (≈ 11.5 µM) | – | – | 28.5 | 1.56 | 200 (≈ 365 µM) | 18 | 3.7 | 25 (≈ 45.6 µM) | 6.3 (≈ 11.5 µM) | > 200 | 6.3 (≈ 11.5 µM) | 3.1 (≈ 5.65 µM) | 12.5 (≈ 22.8 µM) | 6.3 (≈ 11.5 µM) | 3.1 (≈ 5.65 µM) | 12.5 (≈ 22.8 µM) | 12.5 (≈ 22.8 µM) | MIC (Proteus morgani 179; read-out: MIC): 100 µg/mL (≈ 182 µM); MIC [1]: 12.5 µg/mL (≈ 22.8 µM)
5 | NC(=O)Cn1nnnc1SCC1=C(C(=O)O)N2C(=O)C(NC(=O)[C@H](O)c3ccccc3)[C@H]2SC1 (stereo partly drawn) [V, 7-D-Mandelamido-3-(1-carbamoylmethyltetrazol-5-ylthiomethyl)-3-cephem-4-carboxylic acid] | 0.4 (≈ 0.791 µM) | 1.6 (≈ 3.16 µM) | 0.4 (≈ 0.791 µM) | 0.4 (≈ 0.791 µM) | 1.6 (≈ 3.16 µM) | 50 | 1.56 | 12.5 (≈ 24.7 µM) | 21.2 | 1.3 | 25 (≈ 49.5 µM) | 0.2 (≈ 0.396 µM) | > 200 | – | 0.8 (≈ 1.58 µM) | 1.6 (≈ 3.16 µM) | – | 0.4 (≈ 0.791 µM) | 0.8 (≈ 1.58 µM) | 1.6 (≈ 3.16 µM) | MIC (Proteus morgani 179; read-out: MIC): 3.1 µg/mL (≈ 6.13 µM); MIC (Kleb. pneumo. SK 4200; [8]): 1.6 µg/mL (≈ 3.16 µM); MIC (Kleb. pneumo. SK 1200; read-out: MIC): 0.8 µg/mL (≈ 1.58 µM); MIC [1, 11]: 1.6 µg/mL (≈ 3.16 µM); MIC (S. villaluz; read-out: MIC): 25 µg/mL (≈ 49.5 µM); MIC (S. aureus SK 23390; Staphylococcus aureus, SK23390, in vitro, S. aureus SK 23390, read-out: MIC): 3.1 µg/mL (≈ 6.13 µM); MIC (Entero. cloacae HH 31254; [12]): 0.8 µg/mL (≈ 1.58 µM)
